Assay results published in US20240376055A1, “INHIBITORS OF TRANSGLUTAMINASES” (Zedira GmbH, priority 2021, published 2024).
pIC50: −log10 of the molar value.

Tests used:
[1] = molecular target: T1, recombinant human transglutaminase 2 (Homo sapiens, UniProt P21980); test: Transglutaminase assay (DCC-assay: dansylcadaverine incorporation into dimethylcasein); assay type: biochemical; conditions: for pIC50: 10 nM TG2, 37° C., slope 20-30 min
T1 construct: purchased Zedira T022
T1 sequence (P21980 1-687): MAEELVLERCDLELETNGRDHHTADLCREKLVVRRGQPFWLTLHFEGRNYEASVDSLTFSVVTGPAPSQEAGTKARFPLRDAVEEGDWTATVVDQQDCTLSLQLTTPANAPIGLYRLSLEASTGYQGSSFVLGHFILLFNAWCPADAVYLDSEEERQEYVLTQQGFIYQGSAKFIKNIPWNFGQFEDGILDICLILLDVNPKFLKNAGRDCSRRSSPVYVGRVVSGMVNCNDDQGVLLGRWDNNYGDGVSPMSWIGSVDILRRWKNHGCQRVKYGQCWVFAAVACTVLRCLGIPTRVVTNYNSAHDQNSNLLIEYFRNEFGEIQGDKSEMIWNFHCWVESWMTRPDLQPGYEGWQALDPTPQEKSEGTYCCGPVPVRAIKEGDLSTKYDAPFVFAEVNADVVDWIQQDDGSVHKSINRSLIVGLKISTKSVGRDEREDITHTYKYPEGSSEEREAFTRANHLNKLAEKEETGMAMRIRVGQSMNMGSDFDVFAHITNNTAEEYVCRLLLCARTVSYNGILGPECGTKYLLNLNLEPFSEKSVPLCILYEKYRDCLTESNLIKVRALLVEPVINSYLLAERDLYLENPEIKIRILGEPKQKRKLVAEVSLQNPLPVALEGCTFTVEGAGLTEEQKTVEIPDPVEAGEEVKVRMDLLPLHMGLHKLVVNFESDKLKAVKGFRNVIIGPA
Protocol: To illustrate the advantage of branched alkyl moieties over aromatic moieties, we refer to reference compounds Ref. 2 (ZED1227, U.S. Pat. No. 9,434,763 B2) and Ref. 3 (A8, ZED1047). Inhibition data were determined using the classical fluorescent transamidation assay (dansylcadaverine incorporation into methylated casein, DCC-assay) as described [Büchold, C.; Hils, M.; Gerlach, U.; Weber, J.; Pelzer, C.; Heil, A.; Aeschlimann, D.; Pasternack, R. Features of ZED1227: The First-In-Class Tissue Transglutaminase Inhibitor Undergoing Clinical Evaluation for the Treatment of Celiac Disease. Cells 2022, 11, 1667. https://doi.org/10.3390/cells11101667]. Casein is one of the best known high molecular weight (24 kDa) protein substrates for transglutaminases. Please note, the IC50 value of Ref. 3 (A8) published in U.S. Pat. No. 9,434,763 B2 cannot be compared to the present data, relying on a fluorogenic isopeptidase assay.
To this extent, inhibition data were determined using the classical fluorescent transamidation assay (dansylcadaverine incorporation into methylated casein, DCC-assay) as described in Büchold et al. [Buchold, C.; Hils, M.; Gerlach, U.; Weber, J.; Pelzer, C.; Heil, A.; Aeschlimann, D.; Pasternack, R. Features of ZED1227: The First-In-Class Tissue Transglutaminase Inhibitor Undergoing Clinical Evaluation for the Treatment of Celiac Disease. Cells 2022, 11, 1667. https://doi.org/10.3390/cells11101667]. Casein is one of the best known high molecular weight (24 kDa) protein substrates for transglutaminases. Inhibition data of the inventive compounds was compared with inhibition of compounds disclosed in U.S. Pat. No. 9,434,763 B2, particularly, compound A8, which is denoted herein as Reference 3. It is noteworthy that the IC50 values of compounds A8 published in U.S. Pat. No. 9,434,763 B2 and E16 from U.S. Pat. No. 11,072,634 B2 cannot be compared to the present data, relying on a fluorogenic isopeptidase assay.
For the determination of potency of inhibitors against tissue transglutaminase, the incorporation of dansylcadaverine into dimethylcasein (Zedira product T036, Lorand et al., Anal Biochem, 1971, 44:221-31) was measured using recombinant human transglutaminase 2 (Zedira Product T022).
The tissue transglutaminase is diluted in buffer (50 mM Tris-HCl, 7.5 mM CaCl2), 150 mM NaCl, pH=7.4). The final concentration of TG2 in the assay is 10 nM. A 10 mM inhibitor stock solution is prepared in DMSO, and from this a serial 1:2-fold dilution series is prepared also in DMSO. […]
Increase in fluorescence is measured using λex=330 nm and λem=500 nm at 37° C. for 30 min. […]
Analysis of enzymatic activity is performed by calculation of the slope of an increase in fluorescence intensity. […]

[2] = Caco-2 permeability assay (CacoReady kit); assay type: in vitro ADME; conditions: human; Caco-2 barrier
Protocol: Permeability coefficients (Papp values) were obtained from Caco-2 barrier studies predicting oral/intestinal bioavailability of the tested compounds. The assays were performed by using CacoReady™ ready-to-use kits from ReadyCell according to the manufacturers protocol.

[3] = Log D by shake flask method (octanol / PBS pH 7.4, HPLC); assay type: physicochemical; conditions: octanol/phosphate-buffered saline; octanol / PBS pH 7.4, shake flask
Protocol: In order to classify the inventive compounds according to their lipophilicity, Log D values (distribution coefficient) were determined by means of the well-established shake flask method, measuring the partition of a compound between an octanol and phosphate-buffered saline (PBS, pH 7.4) by HPLC.
Compounds with a moderate lipophilicity (Log D values from 0 to 3) are usually advantaged for oral absorption, being in balance between solubility and permeability. However, sophisticated formulation of a compound might improve oral bioavailability for highly lipophilic compounds.

Structure (SMILES) | fold more potent compared to Ref. 3 ([1]; DCC-assay, compared to Ref. 3 (A8)) [fold] | pIC50 [1] | Papp [2] [×10⁻⁶ cm/s] | logD [3] | fold more potent compared to Ref. 4 ([1]; compared to Ref. 4, table 1)
CCC(CC)CNC(=O)Cn1cccc(NC(=O)[C@H](CC/C=C/C(=O)OC)NC(=O)c2cncn2C)c1=O [Ref. 2, reference compound] | 80 | – | – | – | –
CCNC(=O)C(=O)CC[C@H](NC(=O)c1ccn(C)n1)C(=O)Nc1cccn(CC(=O)N[C@]23C[C@H]4C5CC6CC4[C@H](C2)C(C6)[C@H]5C3)c1=O (single isomer, unassigned) [Compound I-80] | – | 6.22 to 6.82 | < 1 | 1 to 3 | –
CCC(CC)CNC(=O)Cn1cccc(NC(=O)[C@H](CCC(=O)C(=O)NC)NC(=O)c2cncn2C)c1=O [Ref. 1, reference compound] | – | – | – | – | about 15 fold
CCNC(=O)C(=O)CC[C@H](NC(=O)c1ncc(OC)o1)C(=O)Nc1cccn(CCC(=O)NC2C3CC4CC(C3)CC2C4)c1=O (stereo partly drawn) [Compound I-87, (S)-N1-(1-(3-(2-adamantylamino)-3-oxopropyl)-2-oxo-1,2-dihydropyridin-3-yl)-N6-ethyl-2-(5-methoxyoxazole-2-carboxamido)-5-oxohexanediamide] | – | 5.46 to 6.22 | 1 to 10 | 1 to 3 | –
